The text below walks through data of US20240376076A1, “INHIBITORS TARGETING UBIQUITIN SPECIFIC PROTEASE 7 (USP7)” (Dana-Farber Cancer Institute, Inc., priority 2021, published 2024).

Data set [1] addresses T1, USP7, Active human recombinant protein (Homo sapiens, UniProt Q93009).
T1 construct: purchased CP Lot; 20200225001
The data set can be described thus: USP7 assay (Ubiquitin-Rhodamine 110 enzymatic assay). The data set is classed as biochemical. As to conditions: read-out: IC50. An outline of the steps:
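Human recombinant USP7 (0.05 nM final) preincubated with compound, 10-point 3-fold series, 15 min at RT. Reaction started with 190 nM ubiquitin-rhodamine 110. Fluorescence (ex 485/em 535 nm) read kinetically 20 min. Slopes normalized to enzyme+substrate and substrate-only controls; IC50 from curve fit.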

Data set [2] in a line: mouse liver microsomal stability (Microsome Assay Protocol). It is filed as in vitro ADME. As to conditions: pH 7.4; mouse liver microsomes, NADPH, 37° C.; read-out: MLM t1/2, min. The protocol:
ND refers to not disclosed.
• 1. Buffer A: 1.0 L of 0.1 M monobasic Potassium Phosphate buffer containing 1.0 mM EDTA Buffer B: 1.0 L of 0.1 M Dibasic Potassium Phosphate buffer containing 1.0 mM EDTA • Buffer C: 0.1 M Potassium Phosphate buffer, 1.0 mM EDTA, pH 7.4 by titrating 700 mL of buffer B with buffer A while monitoring with a pH meter. • 2. Reference compound (Ketanserin) and test compounds spiking solution: • 500 μM spiking solution: added 10 μL of 10 mM DMSO stock solution into 190 μL ACN. • 1.5 μM spiking solution in microsomes (0.75 mg/mL): added 1.5 μL of 500 μM spiking solution and 18.75 μL of 20 mg/mL liver microsomes into 479.75 μL of Buffer C on ice. • 3. Prepared NADPH stock solution (6 mM) by dissolving NADPH into buffer C. Dispensed 30 μL of 1.5 μM spiking solution containing 0.75 mg/mL microsomes solution to the assay plates designated for different time points (0-, 5-, 15-, 30-, 45-min) on ice. For 0-min, added 135 μL of ACN containing IS to the wells of 0-min plate and then added 15 μL of NADPH stock solution (6 mM). Pre-incubated all other plates at 37° C. for 5 minutes. Added 15 μL of NADPH stock solution (6 mM) to the plates to start the reaction and timing. At 5-min, 15-min, 30-min, and 45-min, added 135 μL of ACN containing IS to the wells of corresponding plates, respectively, to stop the reaction. After quenching, shook the plates at the vibrator (IKA, MTS 2/4) for 10 min (600 rpm/min) and then centrifuged at 5594 g for 15 min (Thermo Multifuge×3R). Transferred 50 μL of the supernatant from each well into a 96-well sample plate containing 50 μL of ultra pure water (Millipore, ZMQS50F01) for LC/MS analysis.
A general note: Microsomes from liver hold many membrane-bound enzymes, among them those of drug oxidation.

SMILES strings stand for the structures.

T1 sequence (Q93009 whole entry): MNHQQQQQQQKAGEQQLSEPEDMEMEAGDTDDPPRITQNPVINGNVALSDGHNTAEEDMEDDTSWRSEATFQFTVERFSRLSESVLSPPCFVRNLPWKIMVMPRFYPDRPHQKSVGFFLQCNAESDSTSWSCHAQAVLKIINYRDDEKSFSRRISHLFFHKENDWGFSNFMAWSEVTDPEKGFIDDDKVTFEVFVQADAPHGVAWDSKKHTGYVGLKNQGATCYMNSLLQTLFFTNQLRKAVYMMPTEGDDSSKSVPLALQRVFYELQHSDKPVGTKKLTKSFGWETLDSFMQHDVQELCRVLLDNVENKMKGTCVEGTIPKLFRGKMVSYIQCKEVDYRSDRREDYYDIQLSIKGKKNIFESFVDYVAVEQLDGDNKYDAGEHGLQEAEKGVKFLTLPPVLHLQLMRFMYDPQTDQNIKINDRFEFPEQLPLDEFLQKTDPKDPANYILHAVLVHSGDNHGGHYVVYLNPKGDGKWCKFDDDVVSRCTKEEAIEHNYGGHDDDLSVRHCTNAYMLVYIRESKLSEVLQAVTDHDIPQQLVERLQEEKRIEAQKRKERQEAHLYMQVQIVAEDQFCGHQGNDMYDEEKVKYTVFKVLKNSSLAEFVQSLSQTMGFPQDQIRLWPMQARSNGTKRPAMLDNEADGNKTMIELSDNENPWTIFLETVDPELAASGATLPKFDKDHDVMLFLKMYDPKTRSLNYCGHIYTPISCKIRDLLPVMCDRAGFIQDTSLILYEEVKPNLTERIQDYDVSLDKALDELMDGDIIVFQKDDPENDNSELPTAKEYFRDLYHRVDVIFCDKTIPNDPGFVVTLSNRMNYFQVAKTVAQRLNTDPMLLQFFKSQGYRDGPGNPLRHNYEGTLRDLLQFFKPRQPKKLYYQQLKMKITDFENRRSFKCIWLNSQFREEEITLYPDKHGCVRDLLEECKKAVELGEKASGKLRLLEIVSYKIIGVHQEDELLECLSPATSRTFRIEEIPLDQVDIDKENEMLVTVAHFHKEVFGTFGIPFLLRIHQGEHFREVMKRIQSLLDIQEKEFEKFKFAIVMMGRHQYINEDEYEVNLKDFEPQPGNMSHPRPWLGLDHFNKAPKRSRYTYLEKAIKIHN

Turning to `CN(C)CCC(=O)Nc1ccc2c(=O)n(CC3(O)CCN(C(=O)C(CCCNC(=O)c4ccc5c(Cl)ccnc5n4)Cc4ccccc4)CC3)cnc2c1` (stereo not shown) [Compound 47, N-(4-benzyl-5-(4-((7-(3-(dimethylamino)propanamido)-4-oxoquinazolin-3(4H)-yl)methyl)-4-hydroxypiperidin-1-yl)-5-oxopentyl)-5-chloro-1,8-naphthyridine-2-carboxamide], the IC50 in data set [1] lay within 20 to 100 nM. The half-life at 1 µM in data set [2] worked out at 12.4 min.

Take `Cc1cc(Cl)c2ccc(C(=O)NCCCC(Cc3ccccc3)C(=O)N3CCC(O)(Cn4cnc5cc(NC(=O)CCN(C)C)ccc5c4=O)CC3)cc2n1` (stereo not shown) [Compound 49, N-(4-benzyl-5-(4-((7-(3-(dimethylamino)propanamido)-4-oxoquinazolin-3(4H)-yl)methyl)-4-hydroxypiperidin-1-yl)-5-oxopentyl)-4-chloro-2-methylquinoline-7-carboxamide]: the IC50 in data set [1] is under 20 nM. The half-life at 1 µM in data set [2] came out at 13.5 min.

As for `CN(C)CCC(=O)Nc1ccc2c(=O)n(CC3(O)CCN(C(=O)c4cn(CCNC(=O)c5ccc6c(Cl)ccnc6c5)nc4Cc4ccccc4)CC3)cnc2c1` [Compound 52, N-(2-(3-benzyl-4-(4-((7-(3-(dimethylamino)propanamido)-4-oxoquinazolin-3(4H)-yl)methyl)-4-hydroxypiperidine-1-carbonyl)-1H-pyrazol-1-yl)ethyl)-4-chloroquinoline-7-carboxamide], in data set [1], the IC50 lay in the range of 100 to 1000 nM. Further, the half-life at 1 µM in data set [2] amounted to 15.1 min.

`CN(C)CCC(=O)Nc1ccc2c(=O)n(CC3(O)CCN(C(=O)C4CN(CCNC(=O)c5ccc6c(Cl)ccnc6c5)CC4Cc4ccccc4)CC3)cnc2c1` (stereo not shown) [Compound 54]: in data set [1], the IC50 lay within 20 to 100 nM. Further, in data set [2], the half-life at 1 µM turned out to be 36.5 min.

For `CN(C)CCC(=O)Nc1ccc2c(=O)n(CC3(O)CCN(C(=O)c4cn(CCNC(=O)c5ccc6c(Cl)ccnc6c5)nc4-c4ccccc4)CC3)cnc2c1` [Compound 55, 4-chloro-N-(2-(4-(4-((7-(3-(dimethylamino)propanamido)-4-oxoquinazolin-3(4H)-yl)methyl)-4-hydroxypiperidine-1-carbonyl)-3-phenyl-1H-pyrazol-1-yl)ethyl)quinoline-7-carboxamide], the IC50 in data set [1] is over 1000 nM. Also, in data set [2], the half-life at 1 µM worked out at 35.6 min.

On to `CN(C)CCC(=O)Nc1ccc2c(=O)n(CC3(O)CCN(C(=O)c4cn(CCNC(=O)c5ccc6c(Cl)ccnc6c5)nc4C4CC4)CC3)cnc2c1` [Compound 56, 4-chloro-N-(2-(3-cyclopropyl-4-(4-((7-(3-(dimethylamino)propanamido)-4-oxoquinazolin-3(4H)-yl)methyl)-4-hydroxypiperidine-1-carbonyl)-1H-pyrazol-1-yl)ethyl)quinoline-7-carboxamide], for which the IC50 in data set [1] is over 1000 nM. Besides, in data set [2], the half-life at 1 µM was 95.9 min.

Regarding `O=C(CCN1CCOCC1)Nc1ccc2c(=O)n(CC3(O)CCN(C(=O)C(CCCNC(=O)c4ccc5c(Cl)ccnc5c4)Cc4ccccc4)CC3)cnc2c1` (stereo not shown) [Compound 60, N-(4-benzyl-5-(4-hydroxy-4-((7-(3-morpholinopropanamido)-4-oxoquinazolin-3(4H)-yl)methyl)piperidin-1-yl)-5-oxopentyl)-4-chloroquinoline-7-carboxamide], the IC50 in data set [1] lay in the range of 20 to 100 nM. For the same compound, the half-life at 1 µM in data set [2] turned out to be 2.71 min.

Take `O=C(CCn1ccnc1)Nc1ccc2c(=O)n(CC3(O)CCN(C(=O)C(CCCNC(=O)c4ccc5c(Cl)ccnc5c4)Cc4ccccc4)CC3)cnc2c1` (stereo not shown) [Compound 63, N-(5-(4-((7-(3-(1H-imidazol-1-yl)propanamido)-4-oxoquinazolin-3(4H)-yl)methyl)-4-hydroxypiperidin-1-yl)-4-benzyl-5-oxopentyl)-4-chloroquinoline-7-carboxamide]: in data set [1], the IC50 lay within 100 to 1000 nM. The half-life at 1 µM in data set [2] came out at 4.16 min.

With `CN(C)CCC(=O)Nc1ccc2c(=O)n(CC3(O)CCN(C(=O)C(CCCNC(=O)c4ccc5c(Cl)cc(O)nc5c4)Cc4ccccc4)CC3)cnc2c1` (stereo not shown) [Compound 65], the IC50 in data set [1] is 100 to 1000 nM. For the same compound, the half-life at 1 µM in data set [2] was 12.8 min.

For `CNc1cc(Cl)c2ccc(C(=O)NCCCC(Cc3ccccc3)C(=O)N3CCC(O)(Cn4cnc5cc(NC(=O)CCN(C)C)ccc5c4=O)CC3)cc2n1` (stereo not shown) [Compound 69], the IC50 in data set [1] was over 1000 nM. Further, the half-life at 1 µM in data set [2] was 4.5 min.

Regarding `CNc1cc(Cl)nc2cc(C(=O)NCCCC(Cc3ccccc3)C(=O)N3CCC(O)(Cn4cnc5cc(NC(=O)CCN(C)C)ccc5c4=O)CC3)ccc12` (stereo not shown) [Compound 70], the IC50 in data set [1] fell in the range of 20 to 100 nM. For the same compound, in data set [2], the half-life at 1 µM was determined as 10.3 min.

With `CN(C)CCC(=O)Nc1ccc2c(=O)n(CC3(O)CCN(C(=O)C(CCCNC(=O)c4ccc5c(Cl)cc(C(N)=O)nc5c4)Cc4ccccc4)CC3)cnc2c1` (stereo not shown) [Compound 71], the IC50 in data set [1] fell in the range of 100 to 1000 nM. The half-life at 1 µM in data set [2] came to 54.6 min.

As to `CN(C)CCC(=O)Nc1ccc2c(=O)n(CC3(O)CCN(C(=O)C(Cc4ccccc4)c4cccc(NC(=O)c5ccc6c(Cl)ccnc6c5)c4)CC3)cnc2c1` (stereo not shown) [Compound 72], in data set [1], the IC50 was 100 to 1000 nM. Further, the half-life at 1 µM in data set [2] is 29.5 min.

Take `Cc1cc(Cl)c2ccc(C(=O)N3CCN(CC(=O)N4CCC(O)(Cn5cnc6cc(Cl)ccc6c5=O)CC4)CC3)cc2n1` [Compound 80]: the IC50 in data set [1] was over 1000 nM. The half-life at 1 µM in data set [2] worked out at 5.41 min.

As to `CN(C)CCC(=O)Nc1ccc2c(=O)n(CC3(O)CCN(C(=O)C(CCCNC(=O)c4ccc5c(Cl)ccnc5c4)Cc4ccc(F)cc4)CC3)cnc2c1` (stereo not shown) [Compound 81], the IC50 in data set [1] was 20 to 100 nM. Further, the half-life at 1 µM in data set [2] is 11.8 min.

With `CN(C)CCC(=O)Nc1ccc2c(=O)n(CC3(O)CCN(C(=O)C(CCCNC(=O)c4ccc5c(Cl)c6c(nc5c4)COCC6)Cc4ccccc4)CC3)cnc2c1` (stereo not shown) [Compound 89], the IC50 in data set [1] lay in the range of 20 to 100 nM. For the same compound, in data set [2], the half-life at 1 µM is 3.34 min.

As to `Cc1nc2c(=O)n(CC3(O)CCN(C(=O)C4CCN(CCNC(=O)c5ccc6c(Cl)ccnc6c5)CC4c4ccccc4)CC3)cnc2n1-c1ccc(F)cc1` (stereo not shown) [Compound 110], the IC50 in data set [1] lay within 100 to 1000 nM. Further, in data set [2], the half-life at 1 µM was found to be 2.21 min.

As to `CC(C)c1cnc2cc(C(=O)NCCC[C@H](Cc3ccccc3)C(=O)N3CCC(O)(Cn4cnc5cc(NC(=O)CCN(C)C)ccc5c4=O)CC3)ccc2c1Cl` [Compound 119], the IC50 in data set [1] is under 20 nM. In addition, in data set [2], the half-life at 1 µM was 3.04 min.

Regarding `CC(C)c1cc(Cl)c2ccc(C(=O)NCCC[C@H](Cc3ccccc3)C(=O)N3CCC(O)(Cn4cnc5cc(OCCCN(C)C)ccc5c4=O)CC3)cc2n1` [Compound 120], the IC50 in data set [1] is under 20 nM. Moreover, the half-life at 1 µM in data set [2] came to 5.89 min.

For `CN(C)CCCOc1ccc2c(=O)n(CC3(O)CCN(C(=O)[C@H](CCCNC(=O)c4ccc5c(Cl)c6c(nc5c4)CC(C)(C)C6)Cc4ccccc4)CC3)cnc2c1` [Compound 121], the IC50 in data set [1] is under 20 nM. The half-life at 1 µM in data set [2] came to 6 min.

What is called IC50 is the concentration that inhibits the measured activity by half.
